# Experimental data: PubChem BioAssay (NCI)
#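 Compound exposure: 48 hours, 5 concentrations, 96-well plates. GI50: concentration for 50% inhibition of growth. Definition used: TGI = concentration required for complete inhibition of growth.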
# How the values were obtained:
# Assay in all cases: NCI-60 cell line screen, 48 h
# A498 renal = tested on: A498 renal
# HL-60(TB) leukemia = tested on: HL-60(TB) leukemia
# MDA-MB-231 breast = tested on: MDA-MB-231 breast
# NCI-H23 lung = tested on: NCI-H23 lung
# NCI-H460 lung = tested on: NCI-H460 lung
# SF-295 CNS = tested on: SF-295 CNS
# SF-539 CNS = tested on: SF-539 CNS
# SNB-75 CNS = tested on: SNB-75 CNS
# SR leukemia = tested on: SR leukemia
# KM20L2 colon = tested on: KM20L2 colon
Structure (SMILES),TGI (A498 renal) [µM],TGI (HL-60(TB) leukemia) [µM],TGI (MDA-MB-231 breast) [µM],TGI (NCI-H23 lung) [µM],TGI (NCI-H460 lung) [µM],TGI (SF-295 CNS) [µM],TGI (SF-539 CNS) [µM],TGI (SNB-75 CNS) [µM],TGI (SR leukemia) [µM],GI50 (A498 renal) [µM],GI50 (MDA-MB-231 breast) [µM],GI50 (NCI-H23 lung) [µM],GI50 (NCI-H460 lung) [µM],GI50 (SF-295 CNS) [µM],GI50 (SF-539 CNS) [µM],GI50 (SNB-75 CNS) [µM],GI50 (SR leukemia) [µM],TGI (KM20L2 colon) [µM]
O=C(c1cccs1)N(C(=S)OC12CC3CC(CC(C3)C1)C2)c1ccccc1,> 100,72.5,> 100,> 100,> 100,> 100,> 100,> 100,> 100,–,–,–,–,–,–,–,–,–
COC(=O)c1sc(=S)sc1SCc1ccc(CSc2sc(=S)sc2C(=O)OC)cc1,> 100,–,> 100,> 100,> 100,> 100,–,> 100,–,–,–,–,–,–,–,–,–,–
CC1=CC(=O)c2ccccc2C1=O,39.1,5.94,9.87,19.4,24.5,30.3,11.9,22.1,> 29,–,–,–,–,–,–,–,–,–
O=C(C[n+]1ccc2ccccc2c1)c1ccc2ccc3ccccc3c2c1,18.6,–,15.3,17.6,5.85,16.4,14.2,18.5,2.15,–,–,–,–,–,–,–,–,–
COc1ccc(CC(=O)N2CCC3(C)CC(=O)CC=C23)cc1OC (configuration not stated),> 100,> 100,> 100,> 100,–,> 100,> 100,–,> 100,–,–,–,–,–,–,–,–,–
CC12CC3OC(=O)C1COC14OC5(C2C1=O)C(O)(CCC1C4CC(O)C2(O)CC=CC(=O)C12C)C(=O)OC35C (configuration not stated),–,> 100,> 100,> 100,> 100,> 100,> 100,> 100,–,–,–,–,–,–,–,–,–,–
CNc1ccc2c(c1)[C@@]1(C)c3ccccc3[C@@H](C2)N1C,74,38.5,62.6,61.5,39.9,> 100,–,–,54.7,–,–,–,–,–,–,–,–,–
C=CCc1cccc2cc(C(=O)Nc3ccccc3)c(=N)oc12,50.3,> 100,> 100,> 100,> 100,–,> 100,> 100,> 100,–,–,–,–,–,–,–,–,–
COc1ccc(C(=O)/C=C/c2cccc([N+](=O)[O-])c2)c(OC)c1,> 50,–,> 50,> 50,3.31,> 50,3.09,> 50,4.02,11.1,1.92,2.61,1.27,2.39,1.18,1.61,0.678,–
COc1ccc2c(c1)[nH]c1c(/C=C/c3ccccc3)nccc12,26.6,54,37.2,35.9,33.7,24.2,32.3,32.3,> 100,–,–,–,–,–,–,–,–,–
CC1=NN(c2cccc(Cl)c2)C2(SCC(=O)N2c2nc3ccccc3s2)/C1=C\c1cccs1 (configuration not stated),59,56,87,43.5,69.1,78.3,16.1,47.9,30.1,–,–,–,–,–,–,–,–,–
CCn1c(-c2ccc(N=NNc3ccc(-c4n[nH]c(=S)n4CC)cc3)cc2)n[nH]c1=S,> 100,–,> 100,6.26,–,7.1,–,6.92,> 100,–,–,–,–,–,–,–,–,–
CC(=O)C1=C(C)N(c2ccc(C)cc2)C2(O)C=CC(=O)C3C(=O)N(c4ccccc4)C(=O)C132 (configuration not stated),39.6,18.4,42.8,46.1,> 100,43.7,65.2,50.5,23.7,–,–,–,–,–,–,–,–,–
CNC(=O)OCc1c(CO)nc(SC)n1C,> 100,> 100,–,> 100,> 100,> 100,> 100,> 100,–,–,–,–,–,–,–,–,–,> 100
[N-]=[N+]=CC(=O)c1ccccc1C#CCCc1ccccc1,> 100,32.9,–,89.2,> 100,> 100,> 100,61.4,> 100,–,–,–,–,–,–,–,–,62.7
NC(=O)c1cc2ccc(O)cc2oc1=Nc1ccccc1,68.1,62.4,> 100,56,> 100,> 100,–,68.3,53.9,–,–,–,–,–,–,–,–,–
CCC1CN(C(=O)c2ccccc2)C(Cc2c[nH]c3ccccc23)C(=O)C1CC(=O)OC (configuration not stated),64.3,> 100,–,> 100,> 100,> 100,> 100,> 100,> 100,–,–,–,–,–,–,–,–,–
NCCCCc1cc(O)c2c(c1O)C(=O)c1ccccc1C2=O,37.2,–,24.2,28.4,26.6,28.6,21.8,–,19.8,–,–,–,–,–,–,–,–,–
CCCNC(=O)CCC(C)C1CCC2C3C(C[C@H](OC(C)=O)[C@]12C)[C@@]1(C)CCC2(C[C@H]1C[C@H]3OC(C)=O)OOC1(CC[C@]3(C)C4C[C@H](OC(C)=O)[C@]5(C)C(C(C)CCC(=O)NCCC)CCC5C4[C@H](OC(C)=O)C[C@@H]3C1)OO2 (some centres not stated),> 100,> 100,> 83.4,> 100,> 100,> 100,> 100,> 69.5,> 100,–,–,–,–,–,> 82.2,–,–,–
C[C@H](NC(=O)c1ccc(CNC(=O)/C=C/c2cccc(Oc3ccccc3)c2)cc1)c1ccccc1,> 100,–,> 100,> 100,> 100,> 100,67.8,44.2,> 100,–,–,–,–,–,–,–,–,–
Nc1ccccc1S(=O)(=O)c1ccccc1,> 100,> 100,–,> 100,> 100,> 100,> 100,> 100,> 100,–,–,–,–,–,–,–,–,> 100
